Earlier results, collected in US20260158012A1 (Beijing Creatron Institute Of Pharmaceutical Research Co. …, priority 2022, published 2026).
Where two headings read alike, the source gives them in different places.

Columns and labels:
[1] = for Solubility (in words): aqueous media
[2] = 7 consecutive days
[3] = not given; remark: listed apart in the source
[4] = dosage increased from 400 mg each time to 600 mg each time
[5] = system: advanced hepatocellular carcinoma
[6] = trough concentration <1.40 μg/mL
[7] = trough concentration ≥3.45 μg/mL

[2H]C([2H])([2H])NC(=O)c1cc(Oc2ccc(NC(=O)Nc3ccc(Cl)c(C(F)(F)F)c3)cc2)ccn1 [Donafenib, 4-[4-[[4-chloro-3-(trifluoromethyl)phenyl]carbamoylamino]phenoxy]-N-(trideuteriomethyl)pyridine-2-carboxamide]
Solubility [1]: <10 µg/mL | Solubility (in words) [1]: Practically insoluble in aqueous

CNC(=O)c1cc(Oc2ccc(NC(=O)Nc3ccc(Cl)c(C(F)(F)F)c3)cc2)ccn1 [Sorafenib, 4-[4-[[4-chloro-3-(trifluoromethyl)phenyl]carbamoylamino]phenoxy]-N-methylpyridine-2-carboxamide]
Solubility [1]: <10 µg/mL | oil-water partition coefficient Log P [1]: about 5.6 | Solubility (in words) [1]: Practically insoluble in aqueous | concentration of sorafenib molecules in the solution (pH 1.0): 3400 ng/mL | concentration of sorafenib molecules in the solution (pH 4.5): 130 ng/mL | coefficient of variation of AUC0-12 h at steady state ([2]; 200 mg (Bid) oral): 16.9% | coefficient of variation of Cmax at steady state ([2]; 200 mg (Bid) oral): 8.6% | coefficient of variation of AUC0-12 h at steady state ([2]; 400 mg (Bid) oral): 90.5% | coefficient of variation of Cmax at steady state ([2]; 400 mg (Bid) oral): 106.7% | steady state concentration in the blood (plasma) ([3]; after 2 weeks of treatment, renal cell carcinoma patients): 881-12,526 ng/mL | blood drug concentration of patients who experienced serious adverse reactions ([3]; human, in vivo): exceeded 10,000 ng/ml | incidence of fatigue ([3]; renal cell carcinoma patients): 55.32% | incidence of hand-foot syndrome ([3]; renal cell carcinoma patients): 68.99% | increase in drug exposure [4]: 13% | overall survival (OS) ([5]; 1.40 μg/mL≤Ctrough<3.45 μg/mL): 17.8 months | time to treatment failure (TTF) ([5]; 1.40 μg/mL≤Ctrough<3.45 μg/mL): 13.1 months | overall survival (OS) [5, 6]: 5.3 months | progression-free survival (PFS) [5, 6]: 4.7 months | time to treatment failure (TTF) [5, 6]: 4.7 months | incidence of serious adverse reactions above grade 3 ([5]; trough concentration below 3.45 μg/ml): 26.7% | incidence of serious adverse reactions above grade 3 ([5]; trough concentration exceeded 3.45 μg/ml): 72.7% | overall survival (OS) [5, 7]: 9.5 months | progression-free survival (PFS) [5, 7]: 8.9 months | time to treatment failure (TTF) [5, 7]: 2.4 months
